This note sets out measurements from patent publication US10875829B1, “Azetidine derivatives useful as modulators of cortical catecholaminergic neurotransmission” (Integrative Research Laboratories Sweden AB, priority 2016, dated 2020).

Structures can show the parent of a compound that is named as a salt. Where two headings read alike, the source gives them in different places. Marks after values point to notes of the source that are not given here.

The subject of assay [1] is non-pre-treated Sprague-Dawley rats. Briefly: Locomotor activity in drug-naïve rats (behavioural activity, distance traveled 0-60 min). The assay is classed as in vivo. Particulars: for locomotor activity: recorded for 60 minutes, control saline, n=5. On the procedure:
The effect of compounds in the present disclosure on locomotor activity in drug-naïve rats was also investigated. The animals were placed in the motility meters immediately after drug administration and locomotor activity was recorded for 60 minutes (counts/60 min±SEM). The results are presented as percent of control.
Behavioural activity was measured using eight Digiscan activity monitors (RXYZM (16) TAO, Omnitech Electronics, Columbus, Ohio, USA), connected to an Omnitech Digiscan analyzer and an Apple Macintosh computer equipped with a digital interface board (NB D10-24, National Instruments, USA). Each activity monitor consisted of a quadratic metal frame (W×L=40 cm×40 cm) equipped with photo beam sensors. During measurements of behavioural activity, a rat was put in a transparent acrylic cage (W×L×H, 40×40×30 cm) which in turn was placed in the activity monitor. Each activity monitor was equipped with three rows of infrared photo beam sensors, each row consisting of 16 sensors. Two rows were placed along the front and the side of the floor of the cage, at a 90° angle, and the third row was placed 10 cm above the floor to measure vertical activity. Photo beam sensors were spaced 2.5 cm apart. Each activity monitor was fitted in an identical sound and light attenuating box containing a weak house light and a fan.
The computer software was written using object oriented programming (LabVIEW™, National instruments, Austin, Tex., USA).
Behavioural data from each activity monitor, representing the position (horizontal center of gravity and vertical activity) of the animal at each time, were recorded at a sampling frequency of 25 Hz and collected using a custom written LABView™ application. The data from each recording session were stored and analyzed with respect to distance traveled. Each behavioural recording session lasted 60 min, starting approximately 5 min after the injection of test compound.
Compounds disclosed herein have been tested for effects on spontaneous locomotor activity in non-pre-treated Sprague-Dawley rats (based on accumulated distance traveled 0-60 min post dosing), and with doses up to 100 μmol/kg (s.c.).
The animals were placed in the motility meters immediately after drug administration and locomotor activity was recorded for 60 minutes (counts/60 min). Results are presented as percent of control means. Statistical significance was assessed using Student's t-test (2 tailed) vs controls. * denotes p<0.05, ** p<0.01, *** p<0.001, n=5.

Another assay has as its system NA, DA and 5-HT. Briefly: In vivo brain microdialysis: extracellular monoamines in striatum and frontal cortex. On the set-up: species or system Sprague-Dawley rats. Particulars: for response vs control in vivo at 50 µmol/kg / response vs control in vivo at 16.7 µmol/kg: Rattus norvegicus, sc. An excerpt:
The microdialysis technique is a well-established technique for measuring extracellular levels of neurotransmitters (Ungerstedt, J Int Med, 1991, 230; 365-73). The microdialysis technique was used to measure the effect of compounds disclosed herein upon the efflux of monoamine transmitters (NA, DA and 5-HT) in striatum and frontal cortex in conscious, freely moving rats.
Male Sprague-Dawley rats weighing 280-320 g were used throughout the experiments. Before the experiment the animals were housed in groups, maximum five animals in each cage, with free access to water and food. The animals were housed at least one week prior to surgery and use in the experiments.
A modified version (Waters et al., J Neural Transm Gen Sect, 1994, 98(1); 39-55) of the !-shaped probe (Santiago and Westerink, N-S Arch Pharmacol, 1990, 342; 407-14) with the AN69 polyacrylonitrile/sodium methyl sulfonate copolymer (HOSPAL; o.d/i.d. 310/220 μm: dialysis membrane (Gambro, Lund, Sweden) was used in the microdialysis experiments. In the dorsal striatum, probes with an exposed length of 3 mm of dialysis membrane were used and in the prefrontal cortex the corresponding length was 2.5 mm. The rats were operated under isoflurane inhalation anesthesia while mounted into a Kopf stereotaxic instrument. Coordinates were calculated relative to bregma; dorsal striatum AP+1.0, ML±2.6, DV 6.2; Pf cortex, AP+3.2, ML±1.2, DV −4.0 8°, according to Paxinos and Watson (New York, Academic Press, 1986; FIG. 8 and FIG. 14). The dialysis probe was positioned in a burr hole under stereotaxic guidance and cemented with phosphatine dental cement (DAB Dental).
The rats were housed individually in cages for 48 h before the dialysis experiments, allowing them to recover from surgery and minimizing the risk of drug interactions with the anesthetics during the following experiments. During this period the rats had free access to food and water. On the day of the experiment the rats were connected to a micro-perfusion pump via a swivel and were replaced in the cage where they could move freely within its confinements. The perfusion medium was a Ringer's solution containing (in mmol/l): NaCl; 140, CaCl2); 1.2, KCl; 3.0, MgCl2; 1.0 (Moghaddam and Bunney. Neurochem., 1989, 53; 652-4). The pump was set to a perfusion speed of 2 μl/min and 40 μl sample volume were collected every 20 min.
The rats were perfused for at least 40 min before sampling began. Five fractions of each 20 min were collected and the last three were used for the establishment of the baseline. After collection of baseline fractions, the pharmacological challenge to the dialysis experiment started. Test compounds were administrated by injection (s.c.) in a volume of 5 ml/kg, with 0.9% NaCl (saline) as vehicle.
The analytical method were based on two chromatographic separations dedicated for amines or acids. Two chromatographic systems shared a common auto injector with a 10-port valve and two sample loops for simultaneous injection on the two systems.
The acids were separated by reversed phase chromatography while the amines were separated by reversed phase ion pairing chromatography preceded by a reverse phase separation in a column switching configuration. Three separation columns (Luna C18 (2), dp 3 μm, 2 mm i.d., Phenomenex) of different lengths were used. Electrochemical detection was accomplished on glassy carbon electrodes (MF-1000, Bioanalytical Systems, Inc.)
The aqueous mobile phase (0.6 ml/min) for the acid system contained citric acid (40 mM, dipotassium hydrogen phosphate 10 mM, methanol 8-11% (v/v) and EDTA 0.1 mM. Column length was 30 mm and detection potential relative to Ag/AgCl reference was 0.74V.
The aqueous ion pairing mobile phase (0.4 ml/min) for the amine system contained citric acid 5 mM, sodium citrate 10 mM, acetone 9% (v/v), tetrahydrofurane 3% (v/v), dodecane sulphonic acid 0.025 mM, and EDTA 0.1 mM. Column length was 50 mm and the preceding column was 20 mm. […]

[2] abbreviates: 50 μmol/kg s.c., frontal cortex, n=1-3, read-out: 5-HT FC, maximum effect compared to baseline ± SEM.
Where [3] appears, read: 50 μmol/kg s.c., frontal cortex, n=1-3, read-out: DA FC, maximum effect compared to baseline ± SEM.
Where [4] appears, read: 50 μmol/kg s.c., striatum, n=1-3, read-out: 5-HT Stri, maximum effect compared to baseline ± SEM.
Where [5] appears, read: 50 μmol/kg s.c., striatum, n=1-3, read-out: DA Stri, maximum effect compared to baseline ± SEM.
[6] abbreviates: at the highest tested dose (100 μmol/kg s.c.).
Setting [7] is: 50 μmol/kg s.c., striatum, n=1-3.

Regarding `Fc1cc(F)c(F)c(OC2CNC2)c1F` [Example 3, 3-(2,3,5,6-tetrafluorophenoxy)-azetidine hydrochloric acid salt], the locomotor activity was 114 ± 18 % of control means in assay [1] (11 μmol/kg s.c.), 71 ± 26 % of control means in assay [1] (33 μmol/kg s.c.) and 44 ± 8* % of control means in assay [1] (100 μmol/kg s.c.). Also, the “effect on locomotor activity (in words)” value in assay [1] (at the two highest doses (33, 100 μmol/kg s.c.)) is reported as “significant reduction”. The response vs control in vivo at 50 µmol/kg stood at 205 ± 78% in the assay on NA, DA and 5-HT (setting [2]); 735 ± 18% in the assay on NA, DA and 5-HT (setting [3]); 197 ± 80% with NA, DA and 5-HT (setting [4]); 196 ± 22% in the assay with NA, DA and 5-HT (setting [5]).

For the molecule `CCN1CC(Oc2c(F)c(F)cc(F)c2F)C1` [Example 39, 1-ethyl-3-(2,3,5,6-tetrafluorophenoxy)azetidine hydrochloric acid salt], the values for the locomotor activity in assay [1] (11 μmol/kg s.c.), in assay [1] (33 μmol/kg s.c.) and in assay [1] (100 μmol/kg s.c.) were 132 ± 14 % of control means, 103 ± 18 % of control means and 78 ± 19 % of control means, respectively. For the same molecule, the “effect on locomotor activity (in words)” value in assay [1] (setting [6]) is “significant reduction”. The “NA Stri, maximum effect compared to baseline ± SEM” value in the assay on NA, DA and 5-HT (setting [7]) was 334 ± 10^a % of control. Further, the response vs control in vivo at 50 µmol/kg in the assay with NA, DA and 5-HT (setting [2]) was found to be 256%; in the assay on NA, DA and 5-HT (setting [3]), 359%; with NA, DA and 5-HT (50 μmol/kg s.c., frontal cortex, n=1-3, read-out: NA FC, maximum effect compared to baseline ± SEM) it was 414%; in the assay with NA, DA and 5-HT (setting [4]), 281%; in the assay on NA, DA and 5-HT (setting [5]), 218 ± 18%.

For `Fc1cc(F)cc(OC2CNC2)c1` [Example 52C, 3-(3,5-difluorophenoxy)azetidine hydrochloric acid salt], the locomotor activity in assay [1] (11 μmol/kg s.c.) is 128 ± 25 % of control means; in assay [1] (33 μmol/kg s.c.), 74 ± 24 % of control means; in assay [1] (100 μmol/kg s.c.), 73 ± 15 % of control means. In addition, the “NA Stri, maximum effect compared to baseline ± SEM” value in the assay with NA, DA and 5-HT (setting [7]) is on record as 196 ± 26^a % of control. Also, the response vs control in vivo at 50 µmol/kg is 424 ± 119% in the assay on NA, DA and 5-HT (setting [2]); 147 ± 6% in the assay with NA, DA and 5-HT (setting [5]).

`Fc1cccc(OC2CNC2)c1F` [Example 1A, 3-(2,3-difluorophenoxy)azetidine hydrochloric acid salt]: the locomotor activity in assay [1] (11 μmol/kg s.c.) was 135 ± 17 % of control means; in assay [1] (33 μmol/kg s.c.), 163 ± 17* % of control means; in assay [1] (100 μmol/kg s.c.), 121 ± 23 % of control means. The “NA Stri, maximum effect compared to baseline ± SEM” value with NA, DA and 5-HT (setting [7]) is listed as 155 ± 33^a % of control. Besides, the response vs control in vivo at 50 µmol/kg in the assay on NA, DA and 5-HT (setting [2]) was 207 ± 49%; in the assay with NA, DA and 5-HT (setting [4]) it was 217 ± 21%; with NA, DA and 5-HT (setting [5]) it was 155 ± 9.6%.

For `Fc1cc(F)cc(OC2CNC2)c1.O=C(O)C(O)C(O)C(=O)O` [Example 52B, 3-(3,5-difluorophenoxy)azetidine (+)-tartaric acid salt], the locomotor activity in assay [1] (11 μmol/kg s.c.) is reported as 93 ± 15 % of control means; in assay [1] (33 μmol/kg s.c.) it was 30 ± 5* % of control means; in assay [1] (100 μmol/kg s.c.), 46 ± 8 % of control means. Besides, the “NA Stri, maximum effect compared to baseline ± SEM” value in the assay on NA, DA and 5-HT (Dose 16.7 μmol/kg s.c, striatum) is given as 151^b % of control. Moreover, the response vs control in vivo at 16.7 µmol/kg with NA, DA and 5-HT (Dose 16.7 μmol/kg s.c, frontal cortex, read-out: 5-HT FC, maximum effect compared to baseline ± SEM) was found to be 213 ± 86%; with NA, DA and 5-HT (Dose 16.7 μmol/kg s.c, frontal cortex, read-out: DA FC, maximum effect compared to baseline ± SEM), 638 ± 106%; in the assay with NA, DA and 5-HT (Dose 16.7 μmol/kg s.c, frontal cortex, read-out: NA FC, maximum effect compared to baseline ± SEM) it was 968 ± 176%; with NA, DA and 5-HT (Dose 16.7 μmol/kg s.c, striatum, read-out: 5-HT Stri, maximum effect compared to baseline ± SEM), 146 ± 18%; in the assay with NA, DA and 5-HT (Dose 16.7 μmol/kg s.c, striatum, read-out: DA Stri, maximum effect compared to baseline ± SEM) it was 120 ± 6%.

For the molecule `Fc1cc(F)c(F)c(OC2CNC2)c1` [Example 2, 3-(2,3,5-trifluorophenoxy)azetidine hydrochloric acid salt], the locomotor activity in assay [1] (11 μmol/kg s.c.) is listed as 66 ± 8** % of control means; in assay [1] (33 μmol/kg s.c.), 57 ± 5*** % of control means; in assay [1] (100 μmol/kg s.c.), 21 ± 5*** % of control means. For the same molecule, in assay [1] (at all tested doses (11, 33, 100 μmol/kg s.c.)), the “effect on locomotor activity (in words)” value was “significant reduction”. Further, the response vs control in vivo at 50 µmol/kg in the assay on NA, DA and 5-HT (setting [2]) was 160 ± 32%; in the assay on NA, DA and 5-HT (setting [3]), 600 ± 5.8%; in the assay with NA, DA and 5-HT (setting [4]), 202 ± 5.6%; in the assay with NA, DA and 5-HT (setting [5]), 134 ± 13%.

Turning to `Clc1ccc(OC2CNC2)cc1Cl` [Reference Compound, 3-(3,4-dichlorophenoxy)azetidine hydrochloric acid salt, reference compound], the locomotor activity in assay [1] (11 μmol/kg s.c.) is 132 ± 10 % of control means; in assay [1] (33 μmol/kg s.c.), 108 ± 23 % of control means; in assay [1] (100 μmol/kg s.c.), 323 ± 50** % of control means. Further, in assay [1] (setting [6]), the “effect on locomotor activity (in words)” value is listed as “significant increase”. Besides, in the assay with NA, DA and 5-HT (setting [7]), the “NA Stri, maximum effect compared to baseline ± SEM” value is recorded as 987 ± 425 % of control. For the same molecule, the response vs control in vivo at 50 µmol/kg was found to be 682 ± 14% with NA, DA and 5-HT (setting [2]); 136 ± 48% in the assay with NA, DA and 5-HT (setting [5]).

Consider `Fc1ccc(F)c(OC2CNC2)c1F` [Example 20, 3-(2,3,6-trifluorophenoxy)azetidine hydrochloric acid salt], for which the response vs control in vivo at 50 µmol/kg in the assay on NA, DA and 5-HT (setting [2]) was 164 ± 36%; in the assay with NA, DA and 5-HT (setting [3]), 441 ± 35%; in the assay on NA, DA and 5-HT (setting [4]), 141%; with NA, DA and 5-HT (setting [5]), 146 ± 4%.
